Literature values, collected in publication PMC4801399, “Impact of a CXCL12/CXCR4 Antagonist in Bleomycin (BLM) Induced Pulmonary Fibrosis and Carbon Tetrachloride (CCl4) Induced Hepatic Fibrosis in Mice” (PLoS ONE, 2016).

Columns and labels:
BLM induced PF = details: cited from earlier work
liver fibrosis = details: cited from earlier work

For `c1cc(CN2CCCNCCNCCCNCC2)ccc1CN1CCCNCCNCCCNCC1` [AMD3100], the “number of fibrocytes in the lung” value (BLM induced PF; 3 and 7 days post BLM treatment) is given as “decreased”, the “mortality associated with BLM induced PF” value (BLM induced PF) is given as “alleviate” and the “lung fibrosis and fibrocyte infiltration into the lung” value (BLM induced PF; murine model of BLM induced PF) is given as “reduce”. For the same compound, the liver fibrosis (liver fibrosis) was “increased” and the “transcript levels of Acta2 and Col1a1” value (liver fibrosis) was “increased”.
